Data on 17 compounds can be found in patent US6635670B2, “sPLA2 inhibitors” (Eli Lilly and Company, priority 1999, dated 2003).

Molecules are shown by their SMILES. Where two headings read alike, the source gives them in different places.

The test deals with T1, recombinant human secreted phospholipase A2 (Homo sapiens, UniProt P14555).
T1 sequence (P14555 21-144): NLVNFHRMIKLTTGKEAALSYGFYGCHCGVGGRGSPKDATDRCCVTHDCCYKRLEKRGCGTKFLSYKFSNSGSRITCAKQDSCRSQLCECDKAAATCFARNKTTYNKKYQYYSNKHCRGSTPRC
As to the kind of experiment: chromogenic assay for inhibitors of recombinant human secreted phospholipase A2. It counts as biochemical. From the text: The following chromogenic assay procedure was used to identify and evaluate inhibitors of recombinant human secreted phospholipase A2. The assay described herein has been adapted for high volume screening using 96 well microtiter plates. A general description of this assay method is found in the article, “Analysis of Human Synovial Fluid Phospholipase A2 on Short Chain Phosphatidylcholine-Mixed Micelles: Development of a Spectrophotometric Assay Suitable for a Microtiterplate Reader”, by Laure J. Reynolds, Lori L. Hughes, and Edward A Dennis, Analytical Biochemistry, 204, pp. 190-197, 1992 (the disclosure of which is incorporated herein by reference):
REACTION BUFFER —CaCl2. 2H2O (1.47 g/L) KCl (7.455 g/L) Bovine Serum Albumin (fatty acid free) (1 g/L) (Sigma A-7030, product of Sigma Chemical Co., St. Louis Mo., USA) TRIS HCl (3.94 g/L) pH 7.5 (adjust with NaOH)
ENZYME BUFFER-0.05 NaOAc.3H2O, pH 4.5 0.2 NaCl Adjust pH to 4.5 with acetic acid DTNB-5,5′-dithiobis-2-nitrobenzoic acid
RACEMIC DIHEPTANOYL THIO-PC racemic 1,2-bis(heptanoylthio)-1,2-dideoxy-sn-glycero-3-phosphorylcholine TRITON X-100™ prepare at 6.249 mg/ml in reaction buffer to equal […].
A measured volume of racemic dipheptanoyl thio PC supplied in chloroform at a concentration of 100 mg/ml is taken to dryness and redissolved in 10 millimolar
TRITON X-100™ nonionic detergent aqueous solution.
Reaction Buffer is added to the solution, then DTNB to give the Reaction Mixture.
The reaction mixture thus obtained contains 1 mM diheptanoly thio-PC substrate, 0.29 mm Triton X-100™ detergent, and 0.12 mm DTMB in a buffered aqueous solution at pH 7.5.
1. Add 0.2 ml reaction mixture to all wells;
2. Add 10 ul test compound (or solvent blank) to appropriate wells, mix 20 seconds;
3. Add 50 nanograms of sPLA2 (10 microliters) to appropriate wells;
4. Incubate plate at 40° C. for 30 minutes;
5. Read absorbance of wells at 405 nanometers with an automatic plate reader.
All compounds were tested in triplicate. Typically, compounds were tested at a final concentration of 5 ug/ml. […] Lack of color development at 405 nanometers evidenced inhibition. Compounds initially found to be active were reassayed to confirm their activity and, if sufficiently active, IC50 values were determined. […] In all cases, % inhibition measured at 405 nanometers generated by enzyme reactions containing inhibitors relative to the uninhibited control reactions was determined. Each sample was titrated in triplicate and result values were averaged for plotting and calculation of IC50 values. IC50 were determined by plotting log concentration versus inhibition values in the range from 10-90% inhibition.

The mark [1] stands for this setting: diheptanoyl thio-PC substrate, pH 7.5, 40° C. for 30 minutes, absorbance at 405 nanometers, read-out: Inhibition of human secreted PLA2 IC50 ± mean deviation (3-4 tests).

As a reminder, the IC50 is the concentration at which inhibition is half-maximal. Take `CCc1c(C(=O)C(N)=O)c2c(OCC(=O)NC(C(=O)O)C(=O)O)cccc2n1Cc1ccccc1` [Compound 3F, [2-[[3-(Aminooxoacetyl)-2-ethyl-1-(phenylmethyl)-1H-indol-4-yl]oxy]acetamido]malonic Acid]: under setting [1], the IC50 was determined as 44.7 nM.

`CCc1c(C(=O)C(N)=O)c2c(OCC(=O)N[C@@H](CC(=O)OC)C(=O)OC)cccc2n1Cc1ccccc1` [Compound 2D, N-[2-[[3-(Aminooxoacetyl)-2-ethyl-1-(phenylmethyl)-1H-indol-4-yl]oxy]acetyl]-L-aspartic Acid Dimethyl Ester]: the concentration for half-maximal inhibition (IC50) under setting [1] turned out to be 874 nM.

Take `CCc1c(C(=O)C(N)=O)c2c(OCC(=O)OC)cccc2n1Cc1ccccc1` [Compound 1, [[3-(2-Amino-1,2-dioxoethyl)-2-ethyl-1-(phenylmethyl)-1H-indol-4-yl]oxy]acetic acid methyl ester]: the IC50 turned out to be 49 nM. The “activity in inhibiting SPLA2” value (statement in words) is “highly active”.

Turning to `CCc1c(C(=O)C(N)=O)c2c(OCC(=O)N[C@@H](C)C(=O)OC)cccc2n1Cc1ccccc1` [Compound 2B, N-[2-[[3-(Aminooxoacetyl)-2-ethyl-1-(phenylmethyl)-1H-indol-4-yl]oxy]acetyl]-L-alanine Methyl Ester], under setting [1], the IC50 was 533 nM.

Consider `CCc1c(C(=O)C(N)=O)c2c(OCC(=O)N[C@H](C(=O)O)C(C)C)cccc2n1Cc1ccccc1` [Compound 3G, N-[2-[[3-(Aminooxoacetyl)-2-ethyl-1-(phenylmethyl)-1H-indol-4-yl]oxy]acetyl]-L-valine], for which the IC50 under setting [1] was determined as 36.4 nM.

With `CCc1c(C(=O)C(N)=O)c2c(OCC(=O)NCC(=O)O)cccc2n1Cc1ccccc1` [Compound 3A, N-[2-[[3-(Aminooxoacetyl)-2-ethyl-1-(phenylmethyl)-1H-indol-4-yl]oxy]acetyl]glycine], the IC50 under setting [1] amounted to 71 nM.

As to `CCc1c(C(=O)C(N)=O)c2c(OCC(=O)N[C@@H](Cc3ccccc3)C(=O)O)cccc2n1Cc1ccccc1` [Compound 3E, N-[2-[[3-(Aminooxoacetyl)-2-ethyl-1-(phenylmethyl)-1H-indol-4-yl]oxy]acetyl]-L-phenylalanine], the IC50 under setting [1] was determined as 64 nM.

Consider `CCc1c(C(=O)C(N)=O)c2c(OCC(=O)N[C@H](C(=O)OC)C(C)C)cccc2n1Cc1ccccc1` [Compound 2G, N-[2-[[3-(Aminooxoacetyl)-2-ethyl-1-(phenylmethyl)-1H-indol-4-yl]oxy]acetyl]-L-valine Methyl Ester], for which the concentration for half-maximal inhibition (IC50) under setting [1] is 283 nM.

Turning to `CCc1c(C(=O)C(N)=O)c2c(OCC(=O)NC(C(=O)OC)C(=O)OC)cccc2n1Cc1ccccc1` [Compound 2F, [2-[[3-(Aminooxoacetyl)-2-ethyl-1-(phenylmethyl)-1H-indol-4-yl]oxy]acetamido]malonic Acid Dimethyl Ester], the IC50 under setting [1] stood at 698 nM.

Take `CCc1c(C(=O)C(N)=O)c2c(OCC(=O)N[C@@H](CC(C)C)C(=O)OC)cccc2n1Cc1ccccc1` [Compound 2C, N-[2-[[3-(Aminooxoacetyl)-2-ethyl-1-(phenylmethyl)-1H-indol-4-yl]oxy]acetyl]-L-leucine Methyl Ester]: under setting [1], the IC50 worked out at 82 nM.

Turning to `CCc1c(C(=O)C(N)=O)c2c(OCC(=O)NCC(=O)OC)cccc2n1Cc1ccccc1` [Compound 2A, N-[2-[[3-(Aminooxoacetyl)-2-ethyl-1-(phenylmethyl)-1H-indol-4-yl]oxy]acetyl]glycine Methyl Ester], the IC50 under setting [1] is 529 nM.

As to `CCc1c(C(=O)C(N)=O)c2c(OCC(=O)N[C@H](C(=O)OC)[C@@H](C)CC)cccc2n1Cc1ccccc1` [Compound 2H, N-[2-[[3-(Aminooxoacetyl)-2-ethyl-1-(phenylmethyl)-1H-indol-4-yl]oxy]acetyl]-L-isoleucine Methyl Ester], under setting [1], the concentration for half-maximal inhibition (IC50) came to 166 nM.

For `CCc1c(C(=O)C(N)=O)c2c(OCC(=O)N[C@@H](CC(=O)O)C(=O)O)cccc2n1Cc1ccccc1` [Compound 3D, N-[2-[[3-(Aminooxoacetyl)-2-ethyl-1-(phenylmethyl)-1H-indol-4-yl]oxy]acetyl]-L-aspartic Acid], under setting [1], the IC50 was found to be 132 nM.

As to `CCc1c(C(=O)C(N)=O)c2c(OCC(=O)N[C@@H](C)C(=O)O)cccc2n1Cc1ccccc1` [Compound 3B, N-[2-[[3-(Aminooxoacetyl)-2-ethyl-1-(phenylmethyl)-1H-indol-4-yl]oxy]acetyl]-L-alanine], the IC50 under setting [1] came to 59 nM.

Regarding `CCc1c(C(=O)C(N)=O)c2c(OCC(=O)N[C@@H](CC(C)C)C(=O)O)cccc2n1Cc1ccccc1` [Compound 3C, N-[2-[[3-(Aminooxoacetyl)-2-ethyl-1-(phenylmethyl)-1H-indol-4-yl]oxy]acetyl]-L-leucine], the IC50 under setting [1] worked out at 28 nM.

In the case of `CCc1c(C(=O)C(N)=O)c2c(OCC(=O)N[C@H](C(=O)O)[C@@H](C)CC)cccc2n1Cc1ccccc1` [Compound 3H, N-[2-[[3-(Aminooxoacetyl)-2-ethyl-1-(phenylmethyl)-1H-indol-4-yl]oxy]acetyl]-L-isoleucine], the half-inhibitory concentration (IC50) under setting [1] is 25.1 nM.

`CCc1c(C(=O)C(N)=O)c2c(OCC(=O)N[C@@H](Cc3ccccc3)C(=O)OC)cccc2n1Cc1ccccc1` [Compound 2E, N-[2-[[3-(Aminooxoacetyl)-2-ethyl-1-(phenylmethyl)-1H-indol-4-yl]oxy]acetyl]-L-phenylalanine Methyl Ester]: under setting [1], the half-maximal inhibitory concentration (IC50) is 666 nM.
